System: E. coli strain lacking TEM (ATCC 25922)
Assay: Structured illumination microscopy, inclusion bodies in strain lacking TEM
Format: cell-based, Escherichia coli
Conditions: 12 μM, 120 min, pFTAA stain, SIM
From the text: Fig. 5 Induction of aggregation in cells. […] A single representative image is shown. […] A single representative image is shown. C SIM and brightfield images as in A, but for E. coli ATCC strain. […] A single representative image is shown. […] A single representative blot is shown. […] The corrected P-values were 0.6091, 0.0029, 0.0027, <0.0001, and 0.9992, from left to right. […] Statistics exactly as in E, but from 3 independent experiments. The corrected P-values were 0.8753, 0.9796, 0.0001, 0.0003, and 0.0003, from left to right. Source data are provided as a Source Data file.
The bacterial cultures were washed with PBS, and the number of bacteria was adjusted to 10^8–10^9 cells/mL. […] Then, cells were treated with LCO dyes (pFTAA; Amytacker^TM680 or Amytacker^TM545: final concentration of 0.5 µM; Ebba Biotech, Sweden) for at least 90 min. The absorption, emission, and excitation spectra for each dye were measured based on the standard Ebbabiotec advice (ebbabiotech.com).
Bacteria were fixed by adding 2.5% paraformaldehyde and 0.04 % glutaraldehyde (final concentrations) to the culture media, followed by incubation at room temperature for 15 min and 30 min on ice. Bacteria were then washed in PBS and resuspended in GTE buffer (50 mM glucose, 25 mM Tris, and 10 mM EDTA, pH 8.0). Directly preceding microscopic analysis, cells were transferred to a glass slide and covered with a coverslip. […]

Substance: Ac-RLTAFLHNRRPRLTAFLRQRR-NH2 [TEM3.2]
- inclusion body formation (in words): only very limited inclusion body formation
